According to US10266548B2, “Substituted benzylindazoles for use as Bub1 kinase inhibitors in the treatment of hyperproliferative diseases” (Bayer Intellectual Property GmbH, priority 2011, dated 2019):
Structures can show the parent of a compound that is named as a salt. Where two headings read alike, the source gives them in different places. Blank lines part the entries; values can stand above or below the compound they belong to.

Assays:
[1] = test system: Caco2 cells; assay: Proliferation assay (Caco2 cell line); assay type: cell-based; details: Homo sapiens, Caco-2, 96 h, read-out: Biological Assay 2: Proliferation assay (Caco2 cell line) median IC50
Procedure: (§1) Cultivated tumor cells (cells were ordered from ATCC, except HeLa-MaTu and HeLa-MaTu-ADR, which were ordered from EPO-GmbH, Berlin) were plated at a density of 1000 to 5000 cells/well, depending on the growth rate of the respective cell line, in a 96-well multititer plate in 200 μL of their respective growth medium supplemented 10% fetal calf serum. After 24 hours, the cells of one plate (zero-point plate) were stained with crystal violet (see below), while the medium of the other plates was replaced by fresh culture medium (200 μl), to which the test substances were added in various concentrations (0 μM, as well as in the range of 0.001-10 μM; the final concentration of the solvent dimethyl sulfoxide was 0.5%). The cells were incubated for 4 days in the presence of test substances. Cell proliferation was determined by staining the cells with crystal violet: the cells were fixed by adding 20 μl/measuring point of an 11% glutaric aldehyde solution for 15 minutes at room temperature. After three washing cycles of the fixed cells with water, the plates were dried at room temperature. The cells were stained by adding 100 μl/measuring point of a 0.1% crystal violet solution (pH 3.0). After three washing cycles of the stained cells with water, the plates were dried at room temperature. The dye was dissolved by adding 100 μl/measuring point of a 10% acetic acid solution. […] The change of cell number, in percent, was calculated by normalization of the measured values to the aborbtion values of the zero-point plate (=0%) and the absorbtion of the untreated (0 μm) cells (=100%). The IC50 values were determined by means of a 4 parameter fit using the company's own software.

[2] = target: catalytic domain of human Bub1 (amino acids 704-1085) (Homo sapiens (Human), UniProt O43683); assay: Bub1 kinase assay (TR-FRET); assay type: biochemical; details: 10 μM ATP, 1 μM peptide substrate; read-out: Biological Assay 1: Bub1 kinase assay median IC50
Outline: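 Phosphoserine product detected by TR-FRET (Eu-labeled anti-mouse IgG/anti-phosphoserine antibody to streptavidin-XL665) after 1 h at 22 °C. IC50 from 4-parameter logistic fit.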

[3] = test system: NCI-H460 cells; assay: Proliferation assay (H460 cell line); assay type: cell-based; details: Homo sapiens, NCI-H460, 96 h, read-out: Biological Assay 2: Proliferation assay (H460 cell line) median IC50
Procedure: as §1

[4] = test system: HeLa cells; assay: Proliferation assay (HeLa cell line); assay type: cell-based; details: read-out: Biological Assay 2: Proliferation assay (HeLa cell line) median IC50
[5] = test system: DU145 cells; assay: Proliferation assay (DU145 cell line); assay type: cell-based; details: Homo sapiens, DU-145, 96 h, read-out: Biological Assay 2: Proliferation assay (DU145 cell line) median IC50
Procedure: as §1

[6] = test system: B16F10 cells; assay: Proliferation assay (B16F10 cell line); assay type: cell-based; details: Mus musculus, B16-F10, 96 h, read-out: Biological Assay 2: Proliferation assay (B16F10 cell line) median IC50
Procedure: as §1

[7] = test system: HeLa-MaTu-ADR cells; assay: Proliferation assay (HeLa-MaTu-ADR cell line); assay type: cell-based; details: 96 h, read-out: Biological Assay 2: Proliferation assay (HeLa-MaTu-ADR cell line) median IC50
Procedure: as §1

[8] = Homo sapiens, 96 h, 4 days, crystal violet
[9] = HeLa-MaTu-ADR, 4 days, crystal violet

IC50 [2]: 670 nM
IC50 ([4]; 4 days, crystal violet): ≥ 10000 nM
Compound: CCOc1cc(F)c(Cn2nc(-c3ncc(OC)c(Nc4c(F)cncc4F)n3)c3ccccc32)c(F)c1 [Example 39-2]

IC50 [2]: 6.7 nM
IC50 [4, 8]: 3600 nM
Compound: CCOc1cc(F)c(Cn2nc(-c3ncc(OC)c(Nc4ccncc4)n3)c3c(C)cccc32)c(F)c1 [Example 42-1, 2-[1-(4-ethoxy-2,6-difluorobenzyl)-4-methyl-1H-indazol-3-yl]-5-methoxy-N-(pyridin-4-yl)pyrimidin-4-amine]

Continued, compound first:

Compound: COc1cnc(-c2nn(Cc3c(F)ccc(OC)c3F)c3ccccc23)nc1Nc1ccncc1 [Example 2-4-1, 2-[1-(2,6-difluoro-3-methoxybenzyl)-1H-indazol-3-yl]-5-methoxy-N-(pyridin-4-yl)pyrimidin-4-amine]
IC50 ([1]; Caco2, 4 days, crystal violet): 1400 nM
IC50 [2]: 4.5 nM
IC50 ([3]; H460, 4 days, crystal violet): 4200 nM
IC50 [4, 8]: 3500 nM
IC50 ([5]; DU145, 4 days, crystal violet): 3300 nM
IC50 ([6]; B16F10, 4 days, crystal violet): 1200 nM
IC50 [7, 9]: 1300 nM

Compound: COc1cnc(-c2nn(Cc3cc4c(cc3Br)OCO4)c3ccccc23)nc1Nc1ccncc1 [Example 2-4-3, 2-{1-[(6-bromo-1,3-benzodioxol-5-yl)methyl]-1H-indazol-3-yl}-5-methoxy-N-(pyridin-4-yl)pyrimidin-4-amine]
IC50 ([1]; Caco2, 4 days, crystal violet): 1900 nM
IC50 [2]: 14 nM
IC50 ([3]; H460, 4 days, crystal violet): 9000 nM
IC50 [4, 8]: 3900 nM
IC50 ([5]; DU145, 4 days, crystal violet): 2500 nM
IC50 ([6]; B16F10, 4 days, crystal violet): 1500 nM
IC50 [7, 9]: 100 nM

Compound: COc1cnc(-c2nn(Cc3c(Cl)cccc3Cl)c3ccccc23)nc1Nc1ccncc1 [Example 2-9-1, 2-[1-(2,6-dichlorobenzyl)-1H-indazol-3-yl]-5-methoxy-N-(pyridin-4-yl)pyrimidin-4-amine]
IC50 [1]: 10000 nM
IC50 [2]: 6.7 nM
IC50 [3]: 10000 nM
IC50 [5]: 10000 nM
IC50 [6]: 9500 nM
IC50 [7]: 8100 nM

Compound: COC(=O)c1ccc(Cn2nc(-c3ncc(OC)c(Nc4ccncc4)n3)c3ccccc32)c(Cl)c1 [Example 2-11-1, methyl 3-chloro-4-({3-[5-methoxy-4-(pyridin-4-ylamino)pyrimidin-2-yl]-1H-indazol-1-yl}methyl)benzoate]
IC50 ([1]; Caco2, 4 days, crystal violet): 3000 nM
IC50 [2]: 7.1 nM
IC50 ([3]; H460, 4 days, crystal violet): 3000 nM
IC50 [4, 8]: 290 nM
IC50 ([5]; DU145, 4 days, crystal violet): 3000 nM
IC50 ([6]; B16F10, 4 days, crystal violet): 2900 nM
IC50 [7, 9]: 3000 nM

Compound: COC(=O)c1ccc(CN(c2ccncc2)c2nc(-c3nn(Cc4ccc(C(=O)OC)cc4Cl)c4ccccc34)ncc2OC)c(Cl)c1 [Example 2-11-2, methyl 3-chloro-4-{[(2-{1-[2-chloro-4-(methoxycar-bonyl)benzyl]-1H-indazol-3-yl}-5-methoxypyrimidin-4-yl)(pyridin-4-yl)amino]methyl} benzoate]
IC50 [1]: 8000 nM
IC50 [2]: 540 nM
IC50 [3]: 2300 nM
IC50 ([4]; Homo sapiens, 96 h): 3400 nM
IC50 [5]: 3600 nM
IC50 [6]: 2100 nM
IC50 [7]: 10000 nM

Compound: COc1cnc(-c2nn(Cc3c(F)cc(Br)cc3F)c3ccccc23)nc1Nc1ccncc1 [Example 2-12-1, 2-[1-(4-bromo-2,6-difluorobenzyl)-1H-indazol-3-yl]-5-methoxy-N-(pyridin-4-yl)pyrimidin-4-amine]
IC50 [1]: 1400 nM
IC50 [2]: 7.3 nM
IC50 [3]: 1500 nM
IC50 ([4]; Homo sapiens, 96 h): 1600 nM
IC50 [5]: 1600 nM
IC50 [6]: 1400 nM
IC50 [7]: 1300 nM

Compound: COc1cnc(-c2nn(Cc3c(F)c(F)c(OC)c(F)c3F)c3ccccc23)nc1Nc1ccncc1 [Example 2-24-1, 5-methoxy-N-(pyridin-4-yl)-2-[1-(2,3,5,6-tetrafluoro-4-methoxybenzyl)-1H-indazol-3-yl]pyrimidin-4-amine]
IC50 [1]: 1500 nM
IC50 [2]: 14 nM
IC50 [3]: 2000 nM
IC50 ([4]; Homo sapiens, 96 h): 3100 nM
IC50 [5]: 1300 nM
IC50 [6]: 1400 nM
IC50 [7]: 1300 nM

Compound: CCCc1ccc(Cn2nc(-c3ncc(OC)c(Nc4ccncc4)n3)c3ccccc32)cc1 [Example 2-25-1, 5-methoxy-2-[1-(4-propylbenzyl)-1H-indazol-3-yl]-N-(pyridin-4-yl)pyrimidin-4-amine]
IC50 ([1]; Caco2, 4 days, crystal violet): 10000 nM
IC50 [2]: 15 nM
IC50 ([3]; H460, 4 days, crystal violet): 10000 nM
IC50 [4, 8]: 9800 nM
IC50 ([5]; DU145, 4 days, crystal violet): 10000 nM
IC50 ([6]; B16F10, 4 days, crystal violet): 10000 nM
IC50 [7, 9]: 10000 nM

Compound: CNC(=O)c1ccc(Cn2nc(-c3ncc(OC)c(Nc4ccncc4)n3)c3ccccc32)c(Cl)c1 [Example 29-2, 3-chloro-4-({3-[5-methoxy-4-(pyridin-4-ylamino)pyrimidin-2-yl]-1H-indazol-1-yl}methyl)-N-methylbenzamide]
IC50 [2]: 8.9 nM
IC50 ([4]; 4 days, crystal violet): ≥ 10000 nM

Compound: NC(=O)c1cnccc1Nc1nc(-c2nn(Cc3ccccc3F)c3ccccc23)ncc1O [Example 30-1, 4-({2-[1-(2-fluorobenzyl)-1H-indazol-3-yl]-5-hydroxypyrimidin-4-yl}amino)pyridine-3-carboxamide]
IC50 [2]: 17 nM
IC50 [4, 8]: ≥ 10000 nM

Compound: O=C(O)c1cnccc1Nc1nc(-c2nn(Cc3ccccc3F)c3ccccc23)ncc1O [Example 30-2, 4-({2-[1-(2-fluorobenzyl)-1H-indazol-3-yl]-5-hydroxypyrimidin-4-yl}amino)pyridine-3-carboxylic acid]
IC50 [2]: 20 nM
IC50 [4, 8]: ≥ 10000 nM

Compound: CCOC(=O)c1cnccc1Nc1nc(-c2nn(Cc3ccccc3F)c3ccccc23)ncc1O [Example 30-3, ethyl 4-({2-[1-(2-fluorobenzyl)-1H-indazol-3-yl]-5-hydroxypyrimidin-4-yl}amino)pyridine-3-carboxylate]
IC50 [2]: 8.4 nM
IC50 [4, 8]: ≥ 10000 nM

Compound: NC(=O)c1cnc(-c2nn(Cc3ccccc3F)c3ccccc23)nc1Nc1ccncc1 [Example 32-1, 2-[1-(2-fluorobenzyl)-1H-indazol-3-yl]-4-(pyridin-4-ylamino)pyrimidine-5-carboxamide]
IC50 [2]: 120 nM
IC50 ([4]; Homo sapiens, 96 h): ≥ 10000 nM

Compound: O=C(O)c1cnccc1Nc1nc(-c2nn(Cc3ccccc3F)c3ccccc23)ncc1OCCO [Example 33-1, 4-({2-[1-(2-fluorobenzyl)-1H-indazol-3-yl]-5-(2-hydroxyethoxy)pyrimidin-4-yl}amino)pyridine-3-carboxylic acid hydrochloride (1:1)]
IC50 [2]: 11 nM
IC50 ([4]; Homo sapiens, 96 h): ≥ 10000 nM

Compound: COc1ccc(Cn2nc(-c3ncc(OC)c(Nc4ccnc(F)c4)n3)c3ccccc32)cc1 [Example 34-1, N-(2-fluoropyridin-4-yl)-5-methoxy-2-[1-(4-methoxybenzyl)-1H-indazol-3-yl]pyrimidin-4-amine]
IC50 [2]: 230 nM
IC50 ([4]; Homo sapiens, 96 h): ≥ 10000 nM

Compound: COc1ccc(Cn2nc(-c3ncc(OC)c(Nc4cc(F)nc(F)c4)n3)c3ccccc32)cc1 [Example 34-2, N-(2,6-difluoropyridin-4-yl)-5-methoxy-2-[1-(4-methoxybenzyl)-1H-indazol-3-yl]pyrimidin-4-amine]
IC50 [2]: 6200 nM
IC50 ([4]; Homo sapiens, 96 h): ≥ 10000 nM

Compound: COc1ccc(Cn2nc(-c3ncc(OC)c(Nc4ccncc4F)n3)c3ccccc32)cc1 [Example 34-3, N-(3-fluoropyridin-4-yl)-5-methoxy-2-[1-(4-methoxybenzyl)-1H-indazol-3-yl]pyrimidin-4-amine]
IC50 [2]: 28 nM
IC50 ([4]; Homo sapiens, 96 h): 8700 nM

Compound: CCOc1cc(F)c(Cn2nc(-c3ncc(OCCS(C)(=O)=O)c(Nc4ccncc4)n3)c3ccccc32)c(F)c1 [Example 37-1, 2-[1-(4-ethoxy-2,6-difluorobenzyl)-1H-indazol-3-yl]-5-[2-(methylsulfonyl)ethoxy]-N-(pyridin-4-yl)pyrimidin-4-amine]
IC50 [2]: 5.7 nM
IC50 [4, 8]: 4200 nM
